For orientation: IC50 means the concentration at which inhibition is half-maximal. As a reminder, the EC50 is the concentration at which the effect is half-maximal. Low readings indicate a more potent agent, high ones a less potent agent. As usually defined, the CC50 is the concentration giving 50% cytotoxicity.

Data set [1] can be described thus: Inhibition of RSV RdRp L/P measured after 120 mins by SPA. Details: species or system Respiratory syncytial virus.
In data set [2] the test system is Respiratory syncytial virus. As to the kind of experiment: Antiviral activity against RSV A2 expressing e-GFP infected in human HeLa cells incubated for 3 days by […]. Conditions: 72 h. Format: functional, organism-based. (In general: In ATP-based viability assays light output follows the ATP content of the culture.)
Data set [3] can be described thus: Cytotoxicity against human HeLa cells incubated for 3 days by ATPlite analysis. Format: toxicity, cell-based. To be noted: time 3 day.
The nature of data set [4]: Intrinsic clearance in human liver microsome at 1 uM preincubated for 5 mins followed by NADPH addition measured upto 60 mins by LC-MS/MS analysis. Format: ADME. Conditions: liver microsomes, time 65 min, read-out: CLH.
Data set [5] in a line: Intrinsic clearance in rat liver microsome at 1 uM preincubated for 5 mins followed by NADPH addition measured upto 60 mins by LC-MS/MS analysis. Type of data set: ADME. Conditions: liver microsomes, time 65 min, read-out: CLH.
A short description of data set [6]: Inhibition of RSV RdRp L/P. Details: species or system Respiratory syncytial virus.
Data set [7] relates to Respiratory syncytial virus. As to the kind of experiment: Antiviral activity against RSV. Type of data set: functional, organism-based. To be noted: human respiratory syncytial virus.

Take `COc1cc(C(=O)NCC(O)(c2cc(C(C)(C)O)c(F)c(-c3ccc(F)cc3)n2)C(F)(F)F)cc2cccnc12` (stereo unspecified): the IC50 in data set [1] came to 0.63 nM. Besides, the EC50 in data set [2] worked out at 11 nM. The molecule further registered a CC50 at 72 h in data set [3] of 16000 nM. The microsomal CLint at 1 µM was 12.1 µL/min/mg in data set [4] and 168 µL/min/mg in data set [5].

On to `COc1cc(C(=O)NCC2(c3cc(C(C)(C)O)c(F)c(-c4ccc(F)cc4)n3)OCCO2)cc2cc(C)nnc12`, for which the half-inhibitory concentration (IC50) in data set [1] came out at 0.25 nM. Besides, the midpoint of the response in data set [2], the EC50, lay at 1.2 nM. This molecule displayed a CC50 at 72 h in data set [3] greater than 50000 nM. The microsomal CLint at 1 µM in data set [4] is 13.3 µL/min/mg.

Consider `COc1cc(C(=O)NCC(=O)c2cc(C(C)(C)O)c(F)c(-c3ccc(F)cc3)n2)cc2cc(C)nnc12`, for which the IC50 in data set [1] was 3.4 nM. This molecule came in with an EC50 in data set [2] of 6.5 nM. The CC50 at 72 h in data set [3] came out at 31000 nM. Besides, the microsomal CLint at 1 µM in data set [4] worked out at 9.5 µL/min/mg.

The molecule `COc1cc(C(=O)NCC2(c3cc(C(C)(C)O)c(F)c(-c4ccc(F)cc4)n3)CC(O)CO2)cc2cc(C)nnc12` (stereo unspecified) gave an IC50 in data set [1] of 1.9 nM. In data set [2], this molecule displayed an EC50 of 17 nM. In data set [3], this molecule returned a CC50 at 72 h greater than 5000 nM. Further, in data set [4], the microsomal CLint at 1 µM was 14.6 µL/min/mg.

In the case of `COc1cc(C(=O)NCC2(c3cc(C(C)(C)O)c(F)c(-c4ccc(F)cc4)n3)CCCO2)cc2cc(C)nnc12` (stereo unspecified), in data set [1], the midpoint of inhibition, the IC50, lay at 0.8 nM. The molecule further registered an EC50 in data set [2] of 0.73 nM. Further, the CC50 at 72 h in data set [3] amounted to 18000 nM. In addition, the microsomal CLint at 1 µM in data set [4] was greater than 20 µL/min/mg.

Consider `COc1cc(C(=O)NCC2(c3cc(C(C)(C)O)c(F)c(-c4ccc(F)cc4)n3)OCCC23CC3)cc2cc(C)nnc12` (stereo unspecified), for which it took 0.55 nM to reach half-maximal inhibition in data set [1] (IC50). This molecule displayed an EC50 in data set [2] of 0.41 nM. In addition, the CC50 at 72 h in data set [3] was greater than 5000 nM. In addition, the microsomal CLint at 1 µM in data set [4] is greater than 347 µL/min/mg.

As for `COc1cc(C(=O)NCC2(c3cc(C(C)(C)O)c(F)c(-c4ccc(F)cc4)n3)CC(=O)CO2)cc2cc(C)nnc12` (stereo unspecified), in data set [1], the IC50 amounted to 2.5 nM. In data set [2], the EC50 was 18 nM. For the same molecule, in data set [3], the CC50 at 72 h is greater than 5000 nM. Moreover, the microsomal CLint at 1 µM in data set [4] amounted to 126 µL/min/mg.

The molecule `COc1cc(C(=O)NCC2(c3cc(C(C)(C)O)c(F)c(-c4ccc(F)cc4)n3)OCCC2O)cc2cc(C)nnc12` (stereo unspecified) showed an IC50 in data set [1] of 1.9 nM. This molecule also came in with an EC50 in data set [2] of 0.13 nM. For the same molecule, in data set [3], the CC50 at 72 h is greater than 5000 nM. For the same molecule, the microsomal CLint at 1 µM in data set [4] is 18.4 µL/min/mg.

In data set [1], `COc1cc(-c2cn(C[C@](O)(c3cc(C(C)(C)O)c(F)c(-c4ccc(F)cc4)n3)C(F)(F)F)nn2)cc2cccnc12` gave an IC50 of 16 nM. Moreover, the EC50 in data set [2] amounted to 74 nM. In data set [3], the CC50 at 72 h amounted to 13000 nM. The microsomal CLint at 1 µM in data set [4] and in data set [5] was less than 7.7 µL/min/mg throughout.

Turning to `COc1cc(-c2cn(CC(=O)c3cc(C(C)(C)O)c(F)c(-c4ccc(F)cc4)n3)nn2)cc2cccnc12`, the IC50 in data set [1] is 77 nM. This molecule also yielded an EC50 in data set [2] of 200 nM. In addition, the CC50 at 72 h in data set [3] is greater than 50000 nM. The figures for the microsomal CLint at 1 µM in data set [4] and in data set [5] were 14.3 µL/min/mg and 10.8 µL/min/mg, respectively.

Molecule `COc1cc(-c2cn(CC3(c4cc(C(C)(C)O)c(F)c(-c5ccc(F)cc5)n4)CCCO3)nn2)cc2cccnc12` (stereo unspecified) came in with an IC50 in data set [1] of 22 nM. The midpoint of the response in data set [2], the EC50, lay at 108 nM. The CC50 at 72 h in data set [3] is greater than 5000 nM. The microsomal CLint at 1 µM in data set [4] is greater than 347 µL/min/mg.

For `COc1cc(-c2cn(CC3(c4cc(C(C)(C)O)c(F)c(-c5ccc(F)cc5)n4)CCO3)nn2)cc2cccnc12` (stereo unspecified), half-maximal inhibition in data set [1] (IC50) was put at 4.1 nM. In data set [2], this molecule showed a half-maximal effective concentration (EC50) of 10 nM. This molecule also displayed a CC50 at 72 h in data set [3] of 23600 nM. Also, the results for the microsomal CLint at 1 µM in data set [4] and in data set [5] were 54.2 µL/min/mg and 42.7 µL/min/mg, respectively.

For `COc1cc(C(=O)NCC2(c3cc(C(C)(C)O)c(F)c(-c4ccc(F)cc4)n3)OCCC2=O)cc2cc(C)nnc12` (stereo unspecified), it took 0.1 nM to reach half-maximal inhibition in data set [1] (IC50). The molecule also registered an EC50 in data set [2] of 0.22 nM. For the same molecule, in data set [3], the CC50 at 72 h is greater than 5000 nM. Moreover, the microsomal CLint at 1 µM in data set [4] came to 110 µL/min/mg.

Molecule `COc1cc(C(=O)NC[C@](O)(c2cc(C(C)(C)O)c(F)c(-c3ccc(F)cc3)n2)C(F)(F)F)cc2cc(C)nnc12` had an IC50 in data set [6] of 0.29 nM. In data set [7], the EC50 stood at 0.38 nM.

In turn, `COc1cc(C(=O)NCC2(c3cc(C(C)(C)O)c(F)c(-c4ccc(F)cc4)n3)CC(F)(F)CO2)cc2cc(C)nnc12` (stereo unspecified) returned an IC50 in data set [1] of 0.78 nM. The EC50 in data set [2] is 2.3 nM. The 50% cytotoxic concentration (CC50) at 72 h in data set [3] was greater than 5000 nM. For the same molecule, the microsomal CLint at 1 µM in data set [4] came out at 117 µL/min/mg.

In data set [1], `COc1cc(C(=O)NCC2(c3cc(C(C)(C)O)c(F)c(-c4ccc(F)cc4)n3)CCCCO2)cc2cc(C)nnc12` (stereo unspecified) came in with an IC50 of 44 nM. In data set [2], this molecule registered an EC50 of 170 nM. In data set [3], this molecule gave a 50% cytotoxic concentration (CC50) at 72 h greater than 25000 nM. Also, the microsomal CLint at 1 µM in data set [4] is greater than 347 µL/min/mg.

The values above are taken from ChEMBL document CHEMBL5614451, “Structure-Activity Relationship of Oxacyclo- and Triazolo-Containing Respiratory Syncytial Virus Polymerase Inhibitors” (ACS Med Chem Lett, 2024).
